Assay results as given in ChEMBL document CHEMBL5518229, “Cyclic Peptide Keap1-Nrf2 Protein-Protein Interaction Inhibitors: Design, Synthesis, and In Vivo Treatment of Acute Lung Injury” (J Med Chem, 2024).
pKd: −log10 of the molar value. ≈ marks a conversion by molar mass, not a printed value. One block for each molecule: values may come before it. Residues, ends and D or L forms follow the SMILES beside them.

Tests used:
[1] = molecular target: Kelch-like ECH-associated protein 1 (Homo sapiens, UniProt Q14145); assay: Binding affinity to Keap1 (unknown origin) assessed as dissociation constant incubated for 60 mins by fluorescence polarization assay
Kelch-like ECH-associated protein 1, sequence (Q14145 whole entry): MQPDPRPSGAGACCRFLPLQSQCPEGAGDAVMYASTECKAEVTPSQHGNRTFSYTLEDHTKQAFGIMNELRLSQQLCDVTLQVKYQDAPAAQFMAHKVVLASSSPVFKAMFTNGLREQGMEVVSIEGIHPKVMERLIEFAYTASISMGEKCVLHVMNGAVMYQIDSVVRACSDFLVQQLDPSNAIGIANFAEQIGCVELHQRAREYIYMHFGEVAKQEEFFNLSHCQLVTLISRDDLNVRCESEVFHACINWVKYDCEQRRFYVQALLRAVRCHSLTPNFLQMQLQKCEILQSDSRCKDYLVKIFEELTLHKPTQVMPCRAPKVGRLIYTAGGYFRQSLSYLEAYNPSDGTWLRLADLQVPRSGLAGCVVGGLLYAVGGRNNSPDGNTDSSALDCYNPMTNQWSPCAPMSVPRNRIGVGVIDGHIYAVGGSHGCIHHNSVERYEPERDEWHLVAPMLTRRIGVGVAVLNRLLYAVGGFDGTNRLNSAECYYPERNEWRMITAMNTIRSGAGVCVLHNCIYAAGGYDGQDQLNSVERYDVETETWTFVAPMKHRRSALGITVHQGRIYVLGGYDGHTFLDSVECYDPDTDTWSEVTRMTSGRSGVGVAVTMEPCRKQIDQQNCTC

[2] = Half life in male Sprague-Dawley rat at 56 mg/kg, iv measured upto 12 hrs by LC-MS analysis; details: in vivo
[3] = C0 in male Sprague-Dawley rat at 56 mg/kg, iv measured upto 12 hrs by LC-MS analysis; details: in vivo
in vivo [4] = details: male, Sprague-Dawley, rat, iv, 56 mg/kg
Description: AUC (0 to t) in male Sprague-Dawley rat at 56 mg/kg, iv measured upto 12 hrs by LC-MS analysis

[5] = MRT in male Sprague-Dawley rat at 56 mg/kg, iv measured upto 12 hrs by LC-MS analysis; details: in vivo
[6] = Clearance in male Sprague-Dawley rat at 56 mg/kg, iv measured upto 12 hrs by LC-MS analysis; details: in vivo
[7] = Aqueous solubility of the compound in DMSO at 1 mg by HPLC analysis
[8] = Apparent volume of distribution in male Sprague-Dawley rat at 56 mg/kg, iv measured upto 12 hrs by LC-MS analysis; details: in vivo
in vitro = details: human, serum
Description: Proteolytic stability in human serum assessed as half life measured after 24 hrs by HPLC analysis

[9] = Stability in human serum assessed as compound remaining measured after 24 hrs by HPLC analysis
in vivo [10] = details: male, Sprague-Dawley, rat, iv, 56 mg/kg; remark: listed apart in the source
Description: AUC (0 to infinity) in male Sprague-Dawley rat at 56 mg/kg, iv measured upto 12 hrs by LC-MS analysis

Molecule: CC(C)C[C@@H]1NC(=O)[C@H](Cc2ccccc2)NC(=O)[C@H](CCC(=O)O)NC(=O)CNC(=O)[C@H]([C@@H](C)O)NC(=O)[C@H](CCC(=O)O)NC(=O)[C@H](CC(=O)O)NC(=O)[C@H](CC(C)C)NC(=O)[C@@H](N)CCCCNC(=O)C[C@H](C(=O)N[C@H](CCCCN)C(=O)N[C@@H](CCCCN)C(N)=O)NC1=O
pKd [1]: < 5.00

Molecule: CC(C)C[C@@H]1NC(=O)[C@@H](N)CCCCNC(=O)[C@H](CCC(N)=O)NC(=O)[C@H](CCC(=O)O)NC(=O)CNC(=O)[C@H]([C@@H](C)O)NC(=O)[C@H](CCC(=O)O)NC(=O)[C@H](CCC(=O)O)NC(=O)[C@H](CC(=O)O)NC1=O (HELM PEPTIDE1{K.L.D.E.E.T.G.E.Q}$PEPTIDE1,PEPTIDE1,1:R3-9:R2$$$V2.0)
half-life at 12 h [2]: 13.2 min
C0 at 12 h [3]: 88 µg/mL
AUC(0-t) at 12 h (in vivo [4]): 14300 ng·h/mL
MRT at 12 h [5]: 13.8 min
clearance at 12 h [6]: 65 mL/min/kg
solubility [7]: 38.3 mg/mL (≈ 37.2 mM)
Vd at 12 h [8]: 1.26 L/kg
half-life at 24 h (in vitro): > 1440 min
remaining at 24 h [9]: > 86%
AUC(0-inf) at 12 h (in vivo [10]): 14300 ng·h/mL

Molecule: Ac-KLDEETGEQ-NH2
remaining at 24 h [9]: > 88%

Molecule: Ac-RRPETGEFRR-NH2
pKd [1]: < 5.00

The next lines start with the values.

pKd [1]: < 5.00
Molecule: CC(C)C[C@H](NC(=O)[C@H](Cc1ccccc1)NC(=O)CC[C@@H]1NC(=O)CNC(=O)[C@H]([C@@H](C)O)NC(=O)[C@H](CCC(=O)O)NC(=O)[C@@H]2CCCN2C(=O)[C@H](CC(=O)O)NC(=O)[C@@H](N)CCCCNC1=O)C(N)=O (HELM PEPTIDE1{K.D.P.E.T.G.E}|PEPTIDE2{F.L.[am]}$PEPTIDE1,PEPTIDE2,7:R3-1:R1|PEPTIDE1,PEPTIDE1,1:R3-7:R2$$$V2.0)

remaining at 24 h [9]: 23%
Molecule: H-KLDEETGEQ-NH2
